Converted amounts (≈) assume the structure as drawn. The source made the active and inactive calls. The rule behind the calls is not given here.
Experiments:
[1] = Aqueous solubility of the compound in PBS buffer at pH 7.4 at 200 uM incubated for 2 hrs under shaking condition by miniaturized shake flask method; type: physicochemical
[2] = Intrinsic clearance in human liver microsomes at 1 uM measured for 60 mins by LC-MS/MS analysis; type: ADME, Microsome; conditions: read-out: CLH
Plasmodium falciparum [3] = assay: Antiplasmodial activity against ring stage of Plasmodium falciparum 3D7 expressing ABCI3-HAreg assessed as inhibition of parasite proliferation incubated for 72 hrs in absence of ABCI3 inhibitor, GlcN by SYBR dye based flow cytometry; type: functional, organism-based; conditions: 3D7, 72 h
Plasmodium falciparum [4] = assay: Resistance ratio of EC50 for antiplasmodial activity against drug-resistant recrudescent Plasmodium falciparum Dd2-B2 in 2x10^5 to 2x10^6 bulk culture selection measured on day 15 under initial selection drug pressure concentration of 3XEC50 to EC50 for antiplasmodial activity against Plasmodium flaciparum Dd2-B2 measured after 72 hrs; type: functional
[5] = Ratio of EC50 for antiplasmodial activity against ring stage of Plasmodium falciparum 3D7 expressing ABCI3-HAreg in absence of ABCI3 inhibitor, GlcN to EC50 for antiplasmodial activity against ring stage of Plasmodium falciparum 3D7 expressing ABCI3-HAreg in presence of ABCI3 inhibitor, GlcN; type: functional
Plasmodium falciparum [6] = assay: Antiplasmodial activity against drug-resistant Plasmodium falciparum Dd2-B2 in 2x10^7 bulk culture selection assessed as concentration required to complete parasite killing measured on day 2 under initial selection drug pressure concentration of 3XEC50 by Minimum inoculum of resistance analysis; type: functional; conditions: time 2 day
[7] = Intrinsic clearance in rat hepatocytes at 1 uM measured per million cells for 90 mins by LC-MS/MS analysis; type: ADME, cell-based, Hepatocyte; conditions: read-out: CLH
Plasmodium falciparum [8] = assay: Antimalarial activity against asexual stage of Plasmodium falciparum 3D7 infected in erythrocytes assessed as parasite killing at 10XEC50 incubated for 48 hrs with compound renewal for every 24 hrs followed by drug removal and incubation for 48 hrs with CFDA-SE labelled fresh erythrocytes by Hoechst 33342 staining based two-color flow cytometry; type: functional, organism-based; conditions: Erythrocyte
Plasmodium falciparum [9] = assay: Antiplasmodial activity against ring stage of Plasmodium falciparum 3D7 expressing ABCI3-HAreg assessed as inhibition of parasite proliferation incubated for 72 hrs in presence of ABCI3 inhibitor, GlcN by SYBR dye based flow cytometry; type: functional, organism-based; conditions: 3D7, 72 h
Plasmodium falciparum [10] = assay: Antiplasmodial activity against drug-resistant recrudescent Plasmodium falciparum Dd2-B2 in 2x10^5 bulk culture selection assessed as inhibition of parasite growth incubated for 72 hrs by flow cytometry; type: functional, organism-based
Plasmodium falciparum [11] = assay: Antiplasmodial activity against multidrug-resistant Plasmodium falciparum Dd2 harboring CARL-I1139K mutant infected in erythrocytes assessed as inhibition of parasite growth incubated for 72 hrs by [3H]hypoxanthine incorporation based microbeta counting analysis; type: functional, organism-based; conditions: Dd2, Erythrocyte
Plasmodium falciparum [12] = assay: Antiplasmodial activity against asexual blood stage of Plasmodium falciparum 3D7 assessed as inhibition of parasite growth incubated for 72 hrs by LDH assay; type: functional, organism-based; conditions: 3D7, 72 h
Plasmodium falciparum [13] = assay: Antiplasmodial activity against Plasmodium falciparum Dd2-B2 assessed as inhibition of parasite growth incubated for 72 hrs by flow cytometry; type: functional, organism-based

For `Cc1nn(C(C)(C)C)c2nc(C3CC3)cc(C(=O)N3CCOc4ccncc43)c12`, the solubility thermodynamic at 2 h, 200 µM [1] was 69 µM (≈ 27 µg/mL), the microsomal CLint at 1 µM [2] was 116 µL/min/mg and the EC50 (Plasmodium falciparum [3]) was 2.7 nM. For the same compound, the Ratio EC50 (Plasmodium falciparum [4]) was 3, the “Ratio EC50” value [5] was 3.4 and the Activity (Plasmodium falciparum [6]) was 28 nM. The hepatocyte CLint at 1 µM [7] was 26 µL/min/1e6 cells, the Activity (Plasmodium falciparum [8]) was “Active” and the EC50 (Plasmodium falciparum [9]) was 0.8 nM. It also gave an EC50 (Plasmodium falciparum [10]; Dd2-B2, 72 h) of 28.3 nM, an EC90 (Plasmodium falciparum [10]; Dd2-B2, time 72 hrs) of 68.3 nM and an EC50 (Plasmodium falciparum [11]) of 5 nM. It also gave an EC50 (Plasmodium falciparum [12]) of 16 nM, an EC50 (Plasmodium falciparum [13]; Dd2-B2, 72 h) of 6.8 nM and an EC90 (Plasmodium falciparum [13]; Dd2-B2, time 72 hrs) of 12.3 nM.
